Laboratory results taken from ChEMBL document CHEMBL1139256, “Identification of pharmacophore model, synthesis and biological evaluation of N-phenyl-1-arylamide and N-phenylbenzenesulfonamide derivatives as BACE 1 inhibitors” (Bioorg Med Chem, 2008).
*1 amine or outer side, *2 acyl side, *3 side chain or, on linkers, in order; H or OH if unused. Where a SMILES comes first, the peptide text is derived from it. [ ]: non-standard residue; d: D form. LeuΨ(S-CHOHCH2)Ala = CC(C)C[C@H](N[*:1])[C@@H](O)C[C@@H](C)C(=O)[*:2]

Tests used:
Beta-secretase 1 [1] = target: T1, Beta-secretase 1 (Homo sapiens, UniProt P56817); test: Inhibition of BACE1 at 20 ug/ml by FRET assay
Beta-secretase 1 [2] = target: T1, Beta-secretase 1; test: Inhibition of BACE1 by FRET assay
Beta-secretase 1 [3] = target: T1, Beta-secretase 1; details: 2 ug/ml
Description: Inhibition of BACE1 at 2 ug/ml by FRET assay

T1 sequence (P56817 whole entry): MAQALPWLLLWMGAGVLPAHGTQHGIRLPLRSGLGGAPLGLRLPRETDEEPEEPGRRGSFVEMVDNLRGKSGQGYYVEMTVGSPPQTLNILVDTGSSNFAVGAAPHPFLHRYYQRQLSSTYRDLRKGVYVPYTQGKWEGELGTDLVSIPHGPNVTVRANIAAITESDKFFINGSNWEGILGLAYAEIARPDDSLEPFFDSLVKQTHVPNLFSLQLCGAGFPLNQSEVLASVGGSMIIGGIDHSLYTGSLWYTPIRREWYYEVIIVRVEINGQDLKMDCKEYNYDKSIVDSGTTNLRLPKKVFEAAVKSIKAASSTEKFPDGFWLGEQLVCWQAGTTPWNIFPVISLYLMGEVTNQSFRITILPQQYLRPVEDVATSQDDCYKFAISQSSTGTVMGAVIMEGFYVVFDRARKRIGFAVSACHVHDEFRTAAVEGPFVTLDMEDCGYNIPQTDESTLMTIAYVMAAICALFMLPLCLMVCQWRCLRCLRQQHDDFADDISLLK

Row | SMILES | inhibition (Beta-secretase 1 [1]) | IC50 (Beta-secretase 1 [2]) | inhibition (Beta-secretase 1 [3])
1 | O=C(Cc1cccc2ccccc12)Nc1cc(Br)ccc1OCCN1CCOCC1 | 39.4% |  | 
2 | CN(CCOc1ccc(Br)cc1NC(=O)Cc1cccc2ccccc12)Cc1ccccc1 | 41.8% |  | 
3 | O=S(=O)(Nc1cc(Br)ccc1OCCN1CCOCC1)c1ccc(Br)cc1 | 14.3% |  | 
4 | O=C(Cc1cccc2ccccc12)Nc1cc(Br)ccc1OCCNC1CCCCC1 | 64.5% | 47.1 µM | 
5 | O=C(CCc1ccccc1)Nc1cc(Br)ccc1OCCN1CCOCC1 | 13.8% |  | 
6 | NCCCCCCNCCOc1ccc(Br)cc1NC(=O)Cc1cccc2ccccc12 | 83.7% | 18.3 µM | 
7 | O=C(Cc1cccc2ccccc12)Nc1cc(Br)ccc1OCCNCCCO | 15.1% |  | 
8 | CCOC(=O)CN(C)CCOc1ccc(Br)cc1NC(=O)Cc1cccc2ccccc12 | 24.7% |  | 
9 | CCOC(=O)C1CCN(CCOc2ccc(Br)cc2NC(=O)Cc2cccc3ccccc23)CC1 | 34.8% |  | 
10 | CC(C)C[C@H](NC(=O)[C@H](CC(N)=O)NC(=O)[C@@H](NC(=O)[C@@H](N)CCC(=O)O)C(C)C)[C@@H](O)C[C@@H](C)C(=O)N[C@@H](C)C(=O)N[C@@H](CCC(=O)O)C(=O)N[C@@H](Cc1ccccc1)C(=O)O (H-EVN[LeuΨ(S-CHOHCH2)Ala]AEF-OH) |  |  | 102%
